This note sets out measurements from patent publication US5795861A, “Methods for regulating gastrointestinal motility” (Amylin Pharmaceuticals Inc., priority 1995, dated 1998).

A short description of data set [1]: plasma AC-0137 levels after IV bolus or infusion (clinical study). The class given is in vivo, human. The conditions noted are these: after IV bolus injection. An excerpt:
Subjects in each dose group underwent a two period crossover to examine intravenous (IV) bolus versus IV infusion of drug. Each period consisted of a three-day confinement to the study unit. On each occasion, the initial day of confinement was allowed for acclimatization to the study unit. The second and third days constituted an imbedded crossover of placebo versus active medication. […] An imbedded cross-over design for the administration of drug and placebo on Days 2 and 3 of this admission was employed in a manner similar to that used during the first admission. The six subjects assigned to the placebo group received placebo on each of the study days.
On study days, intravenous catheters were inserted at least 30 minutes prior to the start of the study. 15 minutes before dosing, the subjects took their usual insulin dose via subcutaneous injection. […] The infusion rate was designed to administer the assigned amount of drug over the two hour period. Thirty minutes later, the subjects ingested their normal breakfasts.

A short description of data set [2]: solubility and stability compared to human amylin. The data set is classed as physicochemical.

As for `CC[C@H](C)[C@H](NC(=O)[C@@H]1CCCN1C(=O)CNC(=O)[C@H](Cc1ccccc1)NC(=O)[C@H](CC(N)=O)NC(=O)[C@H](CC(N)=O)NC(=O)[C@H](CO)NC(=O)[C@H](CO)NC(=O)[C@H](Cc1c[nH]cn1)NC(=O)[C@@H](NC(=O)[C@H](CC(C)C)NC(=O)[C@H](Cc1ccccc1)NC(=O)[C@H](CC(N)=O)NC(=O)[C@H](C)NC(=O)[C@H](CC(C)C)NC(=O)[C@H](CCCNC(=N)N)NC(=O)[C@H](CCC(N)=O)NC(=O)[C@@H](NC(=O)[C@H](C)NC(=O)[C@@H]1CSSC[C@H](NC(=O)[C@@H](N)CCCCN)C(=O)N[C@@H](CC(N)=O)C(=O)N[C@@H]([C@@H](C)O)C(=O)N[C@@H](C)C(=O)N[C@@H]([C@@H](C)O)C(=O)N1)[C@@H](C)O)C(C)C)C(=O)N[C@@H](CC(C)C)C(=O)N1CCC[C@H]1C(=O)N1CCC[C@H]1C(=O)N[C@H](C(=O)N[C@@H](CC(N)=O)C(=O)N[C@H](C(=O)NCC(=O)N[C@@H](CO)C(=O)N[C@@H](CC(N)=O)C(=O)N[C@H](C(=O)N[C@@H](Cc1ccc(O)cc1)C(N)=O)[C@@H](C)O)C(C)C)[C@@H](C)O` [AC-0137, ^25,28,29 Pro-h-amylin], the “disappearance of drug from the plasma compartment” value in data set [1] was “apparent first-order kinetics”. In data set [2], the “solubility and stability characteristics” value was “more desirable solubility and stability characteristics”.
